Data published in patent publication US10758620B2, “Potentiated antimicrobial agents” (SEPTEOS, priority 2014, dated 2020).
Read-outs that look alike come from different tables or passages of the source.

Assays:
[1] = test system: Strain 10168, methicillin resistant S. aureus (MRSA); assay: Resistance test (resistant mutants), Strain 10168; format: cell-based; settings: MRSA, text after Table 16
Procedure: After 48 h incubation, the presence or absence of colonies likely to be resistant mutants is observed.
ED control or DMSO=only distilled water or DMSO is added
Ciprofloxacine DMSO: addition of Ciprofloxacine in DMSO

Pseudomonas aeruginosa = assay: MIC measurement in agar medium (dilution test), Pyo; format: cell-based; settings: potentiator alone
Text: (§1) Inhibitory minimum concentration measurement tests are made in a solid agar medium according to international standards in force (CLSI M7-A9 Jan 12 standards): dispersion of the compounds to be tested in a Mueller Hinton gelose. An adaptation relating to the hydrophobicity of compounds and compositions is however necessary to disperse them in the medium: dilution of the compounds in a solvent. The compounds and compositions incorporated in the agar medium can be diluted beforehand in one or more solvents (Tween® 80 diluted with water, Tween® 80 diluted with […], DMSO diluted with water). The strains are deposited onto the agar surface with a steers apparatus. In the examples, different dissolution methods for products are tested in parallel to circumvent the problems of water/solvent distribution coefficient of the molecules (antimicrobial and potentiator) whereas the bacteria grow only in the aqueous phase. The technical requirement will not intervene in in vivo tests. The same dilution methods can be implemented in a liquid medium (microplates and tubes). The same methodology is implemented with fungi. […] MIC measurement: the minimum inhibitory concentration measurement tests are made in an agar solid medium according to international standards in force (CLSI standards), according to the previously defined protocol. […] The booster contribution as compared with the MIC of the antibiotic alone is expressed in a (MIC ATB)/(MIC ATB+booster) ratio. Thereby, gains are defined: […]

Strain 10168 SARM = assay: Growth test in liquid medium; format: cell-based; settings: compound at a very low dose
Text: The growth tests are made in a liquid medium with prior dispersing the antibiotic booster in a suitable solvent (tween/water).
4XMIC means that the concentration of antibiotic is 4 times higher than its MIC, measured when used alone on the strain considered.

Staphylococcus = assay: MIC measurement in agar medium (dilution test), Staph; format: cell-based; settings: potentiator alone
Text: as §1

[2] = test system: methicillin resistant S. aureus (MRSA) strains 09003, 10168; assay: MIC of the potentiator used alone on the strains of Examples 3 and 4; format: cell-based; settings: Staphylococcus aureus, on these strains
candidas = assay: MIC measurement (dilution test) on yeast strains; format: cell-based, Candida; design: key to MIC 90 gain / MIC 50 gain: gain = MIC of antifungal alone / MIC of antifungal + booster; settings: Sertaconazole with booster, solvent DMSO
Text: Inhibitory minimum concentration measurement tests are made in a solid agar medium according to international standards in force (CLSI M7-A9 Jan 12 standards): dispersion of the compounds to be tested in a Mueller Hinton gelose. An adaptation relating to the hydrophobicity of compounds and compositions is however necessary to disperse them in the medium: dilution of the compounds in a solvent. The compounds and compositions incorporated in the agar medium can be diluted beforehand in one or more solvents (Tween® 80 diluted with water, Tween® 80 diluted with […], DMSO diluted with water). The strains are deposited onto the agar surface with a steers apparatus. In the examples, different dissolution methods for products are tested in parallel to circumvent the problems of water/solvent distribution coefficient of the molecules (antimicrobial and potentiator) whereas the bacteria grow only in the aqueous phase. The technical requirement will not intervene in in vivo tests. The same dilution methods can be implemented in a liquid medium (microplates and tubes). The same methodology is implemented with fungi. […] MIC measurement: the minimum inhibitory concentration measurement tests are made in an agar solid medium according to international standards in force (CLSI standards), according to the previously defined protocol. […] The booster contribution as compared with the MIC of the antibiotic alone is expressed in a (MIC ATB)/(MIC ATB+booster) ratio. Thereby, gains are defined: […] The yeast strains tested (n=33) belong to the […] albicans, Candida tropicalis, Candida krusei, Candida parapsilosis, Candida glabrata species.

Escherichia coli = assay: MIC measurement in agar medium (dilution test), Coli; format: cell-based; settings: potentiator alone
Text: as §1

E. Coli Strain 8150 = assay: Etest, E. Coli Strain 8150; format: cell-based; settings: for MIC: Escherichia coli, read-out: MIC of Pipera tazo, Strain 8150; for MIC of Meropenem / MIC of Tigecycline: Strain 8150
Text: (§2) The corresponding tests are made based on the usual MIC test: the Etest® (Biomerieux) strip is deposited onto the surface of a seeded agar medium in which the booster has been incorporated. This test enables solvent effect risks, that is a possible interaction with the solvent used in vitro, to be minimised.
(§3) The control corresponds to the test made without cineol. A control is made in each solvent tested: distilled water, Tween/water and DMSO.
(§4) ED control=antibiotic alone in distilled water
(§5) DMSO control=antibiotic alone in DMSO
(§6) TE control=antibiotic alone in Tween® 80

E. Coli Strain 08138 = assay: Etest, E. Coli Strain 08138; format: cell-based; settings: for MIC: Escherichia coli, read-out: MIC of Pipera tazo, Strain 08138; for MIC of Cefoxitine: Strain 08138
Text: as §2, §3, §4, §5, §6

[3] = booster 1 mg/L in agar, Tween/water
[4] = booster 4 mg/L in agar, Tween/water
[5] = booster 16 mg/L in agar, Tween/water

O=C(OCc1ccccc1)c1ccccc1 [BB, benzyl benzoate]
occurrence of mutants on addition of the compound to ciprofloxacine [1]: does not cause the occurrence of mutants any longer
MIC 50 (Pseudomonas aeruginosa; solvent DMSO): 1.00%
MIC 90 (Pseudomonas aeruginosa; solvent DMSO): 1.00%
MIC 50 (Pseudomonas aeruginosa; solvent Tween/prop glyc): >1%
MIC 90 (Pseudomonas aeruginosa; solvent Tween/prop glyc): >1%
MIC 50 (Pseudomonas aeruginosa; solvent Tween/water): >1%
MIC 90 (Pseudomonas aeruginosa; solvent Tween/water): >1%
MIC 50 (Pseudomonas aeruginosa; solvent water/water): >1%
MIC 90 (Pseudomonas aeruginosa; solvent water/water): >1%
effect of the compound on bactericidal rate of Augmentin (Strain 10168 SARM): enables the bactericidal rate of Augmentin® to be accelerated
MIC 50 (Staphylococcus; solvent DMSO): 1.00%
MIC 90 (Staphylococcus; solvent DMSO): 1.00%
MIC 50 (Staphylococcus; solvent Tween/prop glyc): >1%
MIC 90 (Staphylococcus; solvent Tween/prop glyc): >1%
MIC 50 (Staphylococcus; solvent Tween/water): >1%
MIC 90 (Staphylococcus; solvent Tween/water): >1%
MIC 50 (Staphylococcus; solvent water/water): >1%
MIC 90 (Staphylococcus; solvent water/water): >1%
MIC [2]: > 10000 µg/mL
MIC 50 gain (candidas; ratio 64/100): 0.13
MIC 90 gain (candidas; ratio 64/100): 0.50
MIC 50 gain (candidas; ratio 64/500): 1.00
MIC 90 gain (candidas; ratio 64/500): 1.00
MIC 50 (Escherichia coli; solvent DMSO): >1%
MIC 90 (Escherichia coli; solvent DMSO): >1%
MIC 50 (Escherichia coli; solvent Tween/prop glyc): >1%
MIC 90 (Escherichia coli; solvent Tween/prop glyc): >1%
MIC 50 (Escherichia coli; solvent Tween/water): >1%
MIC 90 (Escherichia coli; solvent Tween/water): >1%
MIC 50 (Escherichia coli; solvent water/water): >1%
MIC 90 (Escherichia coli; solvent water/water): >1%
MIC (E. Coli Strain 8150; booster 1 mg/L in agar, DMSO): 0.75 µg/mL
MIC (E. Coli Strain 8150; [3]): 1.5 µg/mL
MIC (E. Coli Strain 8150; booster 4 mg/L in agar, DMSO): 1 µg/mL
MIC (E. Coli Strain 8150; [4]): 1 µg/mL
MIC (E. Coli Strain 8150; booster 16 mg/L in agar, DMSO): 1 µg/mL
MIC (E. Coli Strain 8150; [5]): 1.5 µg/mL
MIC of Meropenem (E. Coli Strain 8150; booster 1 mg/L in agar, DMSO): 0.047 mg/L
MIC of Tigecycline (E. Coli Strain 8150; booster 1 mg/L in agar, DMSO): 0.125 mg/L
MIC of Meropenem (E. Coli Strain 8150; [3]): 0.094 mg/L
MIC of Tigecycline (E. Coli Strain 8150; [3]): 0.125 mg/L
MIC of Meropenem (E. Coli Strain 8150; booster 4 mg/L in agar, DMSO): 0.064 mg/L
MIC of Tigecycline (E. Coli Strain 8150; booster 4 mg/L in agar, DMSO): 0.094 mg/L
MIC of Meropenem (E. Coli Strain 8150; [4]): 0.064 mg/L
MIC of Tigecycline (E. Coli Strain 8150; [4]): 0.19 mg/L
MIC of Meropenem (E. Coli Strain 8150; booster 16 mg/L in agar, DMSO): 0.094 mg/L
MIC of Tigecycline (E. Coli Strain 8150; booster 16 mg/L in agar, DMSO): 0.125 mg/L
MIC of Meropenem (E. Coli Strain 8150; [5]): 0.094 mg/L
MIC of Tigecycline (E. Coli Strain 8150; [5]): 0.094 mg/L
MIC (E. Coli Strain 08138; booster 1 mg/L in agar, DMSO): 3 µg/mL
MIC (E. Coli Strain 08138; [3]): 6 µg/mL
MIC (E. Coli Strain 08138; booster 4 mg/L in agar, DMSO): 6 µg/mL
MIC (E. Coli Strain 08138; [4]): 4 µg/mL
MIC (E. Coli Strain 08138; booster 16 mg/L in agar, DMSO): 6 µg/mL
MIC (E. Coli Strain 08138; [5]): 4 µg/mL
MIC of Cefoxitine (E. Coli Strain 08138; booster 1 mg/L in agar, DMSO): 2 mg/L
MIC of Cefoxitine (E. Coli Strain 08138; [3]): 2 mg/L
MIC of Cefoxitine (E. Coli Strain 08138; booster 4 mg/L in agar, DMSO): 3 mg/L
MIC of Cefoxitine (E. Coli Strain 08138; [4]): 2 mg/L
MIC of Cefoxitine (E. Coli Strain 08138; booster 16 mg/L in agar, DMSO): 2 mg/L
MIC of Cefoxitine (E. Coli Strain 08138; [5]): 3 mg/L
